Assay results taken from patent publication US20030176368A1, “Synthesis of epothilones, intermediates thereto and analogues thereof” (priority 2001, published 2003).
Read-outs that look alike come from different tables or passages of the source.

Key:
[1] = Stability on exposure to murine plasma; type: in vitro ADME; details: compared with the parent compound
Source text: See Chou et al. Proc. Natl. Acad. Sci. USA 98:8113, 2001, incorporated herein by reference, for details.
However, the apparently disappointing murine in vivo results should be viewed in the context of reports that dEpoB itself evidenced a degree of bioinstability in murine plasma; yet had much longer plasma half-lives in higher organisms, including humans (Chou et al. J. Proc. Natl. Acad. Sci. USA 98:8113, 2001; incorporated herein by reference). The observed discrepancy in efficacy between mice and other mammals, including humans, has been ascribed to higher esterase levels in rodents.

CCRF-CEM = test: XTT cytotoxicity assay, CCRF-CEM cells; type: cell-based, human; details: for activity in CCRF-CEM cell lines: Example 12, in words
Procedure: (§1) XTT assay following 72 h inhibition. CCRF-CEM is a human T-cell acute lymphoblastic leukemia cell line. The CCRF-CEM/VBL100, CCRF-CEM/VM1, and CCRF-CEM/Taxol cell lines all overexpress P-glycoprotein and display a multidrug resistance phenotype to MDR-associated oncolytics. (Chou et al. Proc. Natl. Acad. Sci. USA 98:8113, 2001; incorporated herein by reference).
(§2) A typical experiment invovles culturing cells (e.g., CCRF-CEM) at an initial density of 2-5×10^4 cells per ml. They are maintained in a 5% CO2-humidified atmosphere at 37° C. in RPMI medium 1640 (GIBCO/BRL) containing penicillin (100 units/ml), streptomycin (100 μg/ml) (GIBCO/BRL), and 5% heat-inactivated fetal bovine serum. For cells that were grown in suspension (such as CCRF-CEM and its sublines), cytotoxicitiy is measured by using the 2,-3-bis(2-methoxy-4-nitro-5-sulfophenyl)-5 carboxanilide)-2H terazodium hydroxide (XTT)-microculture tetrazonium method in duplicate in 96-well microtiter plates. For both methods, the absorbance of each well is measured with a microplate reader (EL-340, Bio-Tek, Burlington, Vt.). Each run entails six or seven concentrations of the tested drugs. Dose-effect relationship data are analyzed with the median-effect plot.
(§3) The CCRF-CEM human T cells, acute lymphoblastic leukemic cells, its teniposide-resistant subline (CCRF-CEM/VM1) and vinblastine-resistant subline (CCRF-CEM/VBL100) are obtained from W. T. Beck (University of Illinois, Chicago, Ill.).

CCRF-CEM/VBL100 = test: XTT cytotoxicity assay, vinblastine-resistant CCRF-CEM/VBL100 cells; type: cell-based, human
Procedure: as §1, §2, §3

CCRF-CEM/VM1 = test: XTT cytotoxicity assay, teniposide-resistant CCRF-CEM/VM1 cells; type: cell-based, human
Procedure: as §1, §2, §3

CCRF-CEM/Taxol = test: XTT cytotoxicity assay, taxol-resistant CCRF-CEM/Taxol cells; type: cell-based, human; details: for activity in CCRF-CEM cell lines resistant to Taxol: Example 12, in words
Procedure: as §1, §2

tubulin = test: Tubulin binding: formation of microtubules in the presence of the compounds; type: biochemical
Source text: Indeed, the microtubule stabilizing ability closely parallels the observed cytotoxicity data.

[2] = Homo sapiens, CCRF-CEM, Example 11 Table 2, XTT assay following 72-h inhibition, read-out: In Vitro Cytotoxicities (IC50) CCRF-CEM/VMI
[3] = Homo sapiens, CCRF-CEM, Example 11 Table 2, XTT assay following 72-h inhibition, read-out: In Vitro Cytotoxicities (IC50) CCRF-CEM
[4] = Homo sapiens, CCRF-CEM, Example 11 Table 2, XTT assay following 72-h inhibition, read-out: In Vitro Cytotoxicities (IC50) CCRF-CEM/TAXOL
[5] = Homo sapiens, CCRF-CEM, Example 11 Table 2, XTT assay following 72-h inhibition, read-out: In Vitro Cytotoxicities (IC50) CCRF-CEM/VBL100
[6] = Microtubules formed in the presence of dEpoB is defined as 100%

C/C(=C\c1csc(C)n1)[C@@H]1C/C=C(/C(F)(F)F)C/C=C/C[C@H](C)[C@H](O)[C@@H](C)C(=O)C(C)(C)[C@@H](O)CC(=O)O1 [27-Tn-F-[17]ddEpoB (22), 10,11-dehydro-13,14-desoxy-27-trifluoro-[17]epothilone B]
stability in mouse blood plasma [1]: more stable
IC50 (CCRF-CEM; Homo sapiens, CCRF-CEM, Example 6 table, XTT assay following 72 h inhibition, read-out: CCRF-CEM (IC50 (μM))): 0.068 µM
IC50 (CCRF-CEM/VBL100; Homo sapiens, CCRF-CEM, Example 6 table, XTT assay following 72 h inhibition, read-out: CCRF-CEM/VBL (IC50 (μM))): 0.191 µM

CC1=C/C[C@@H](/C(C)=C/c2csc(CO)n2)OC(=O)C[C@H](O)C(C)(C)C(=O)[C@H](C)[C@@H](O)[C@@H](C)C\C=C\1 [Compound 21-OH-Epo490]
IC50 (CCRF-CEM/VM1; Homo sapiens, CCRF-CEM, Example 5 Table 1, 72 h inhibition, read-out: In vitro Cytotoxicities (IC50) C/VM1): 61 nM
IC50 (CCRF-CEM/VM1; [2]): 61 nM
activity in CCRF-CEM cell lines (CCRF-CEM): demonstrated activity
IC50 (CCRF-CEM; Homo sapiens, CCRF-CEM, Example 5 Table 1, 72 h inhibition, read-out: In vitro Cytotoxicities (IC50) CCRF-CEM(C)): 0.03 µM
IC50 (CCRF-CEM; [3]): 0.03 µM
activity in CCRF-CEM cell lines resistant to Taxol (CCRF-CEM/Taxol): demonstrated activity
IC50 (CCRF-CEM/Taxol; Homo sapiens, CCRF-CEM, Example 5 Table 1, 72 h inhibition, read-out: In vitro Cytotoxicities (IC50) C/Taxol): 51 nM
IC50 (CCRF-CEM/Taxol; [4]): 51 nM
IC50 (CCRF-CEM/VBL100; Homo sapiens, CCRF-CEM, Example 5 Table 1, 72 h inhibition, read-out: In vitro Cytotoxicities (IC50) C/VBL100): 0.202 µM
IC50 (CCRF-CEM/VBL100; [5]): 0.202 µM
% Tubulin Binding (tubulin; Example 5 Table 1): 77%
% Tubulin Binding (tubulin; [6]): 77%

C/C(=C\c1csc(C)n1)[C@@H]1C/C=C(/CF)CCC[C@H](C)[C@H](O)[C@@H](C)C(=O)C(C)(C)[C@@H](O)CC(=O)O1 [Compound 26F-EpoD]
activity in CCRF-CEM cell lines (CCRF-CEM): demonstrated activity
IC50 (CCRF-CEM; Example 12, read-out: activity for CCRF-CEM cell lines): ~0.0015 µM
activity in CCRF-CEM cell lines resistant to Taxol (CCRF-CEM/Taxol): demonstrated activity
IC50 (CCRF-CEM/Taxol; Example 12, read-out: activity for CCRF-CEM/Taxol resistant cell lines): ~11 nM

CC(=O)O[C@H]1C(=O)[C@@]2(C)[C@H]([C@H](OC(=O)c3ccccc3)[C@]3(O)C[C@H](OC(=O)[C@H](O)[C@@H](NC(=O)c4ccccc4)c4ccccc4)C(C)=C1C3(C)C)[C@]1(OC(C)=O)CO[C@@H]1C[C@@H]2O [Taxol, paclitaxel, reference compound]
IC50 (CCRF-CEM/VM1; [2]): 3 nM
IC50 (CCRF-CEM; [3]): 0.0021 µM
IC50 (CCRF-CEM/Taxol; [4]): 81 nM
IC50 (CCRF-CEM/VBL100; [5]): 0.827 µM

CC1=CCC(C(C)=Cc2csc(C)n2)OC(=O)CC(O)C(C)(C)C(=O)C(C)C(O)C(C)CC=CC1 (stereo not shown) [[17]ddEpoB, 10,11-dehydro-13,14-[17]desoxyepothilone B]
IC50 (CCRF-CEM/VM1; Example 12, growth inhibition, read-out: activity, CCRF-CEM/VM1 resistant cell lines): ~55 nM
IC50 (CCRF-CEM/VM1; XTT assay following 72 h inhibition, read-out: In vitro Cytotoxicities (IC50) CCRF-CEM/VM1): 55 nM
IC50 (CCRF-CEM; Example 6 table, XTT assay following 72 h inhibition, read-out: CCRF-CEM (IC50 (μM))): 0.04 µM
IC50 (CCRF-CEM; Example 12, growth inhibition, read-out: activity, CCRF-CEM tumor cell lines): ~0.051 µM
IC50 (CCRF-CEM; XTT assay following 72 h inhibition, read-out: In vitro Cytotoxicities (IC50) CCRF-CEM): 0.04 µM
IC50 (CCRF-CEM/Taxol; Example 12, growth inhibition, read-out: activity, CCRF-CEM/Taxol resistant cell lines): ~49 nM
IC50 (CCRF-CEM/Taxol; XTT assay following 72 h inhibition, read-out: In vitro Cytotoxicities (IC50) CCRF-CEM/Taxol): 53 nM
IC50 (CCRF-CEM/VBL100; Example 6 table, XTT assay following 72 h inhibition, read-out: CCRF-CEM/VBL (IC50 (μM))): 0.126 µM
IC50 (CCRF-CEM/VBL100; Example 12, growth inhibition, read-out: activity, CCRF-CEM/VBL100 resistant cell lines): ~0.137 µM
IC50 (CCRF-CEM/VBL100; XTT assay following 72 h inhibition, read-out: In vitro Cytotoxicities (IC50) CCRF-CEM/VBL100): 0.126 µM
% Tubulin Binding (tubulin; Example 5 Table 1): 94%

C/C1=C/C[C@@H](/C(C)=C/c2csc(C)n2)OC(=O)C[C@H](O)C(C)(C)C(=O)[C@H](C)[C@@H](O)[C@@H](C)CCC1 [dEpoB, 12,13-desoxyepothilone B, reference compound]
IC50 (CCRF-CEM/VM1; Homo sapiens, CCRF-CEM, 72 h, read-out: In Vitro Cytotoxicities (IC50) CCRF-CEM/VMI): 16 nM
IC50 (CCRF-CEM/VM1; Homo sapiens, CCRF-CEM, 72 h, read-out: In vitro Cytotoxicities (IC50) C/VM1): 16 nM
IC50 (CCRF-CEM/VM1; Homo sapiens, CCRF-CEM, 72 h, read-out: In vitro Cytotoxicities (IC50) CCRF-CEM/VM1): 16 nM
IC50 (CCRF-CEM; Homo sapiens, CCRF-CEM, 72 h, read-out: In Vitro Cytotoxicities (IC50) CCRF-CEM): 0.011 µM
IC50 (CCRF-CEM; Homo sapiens, CCRF-CEM, 72 h, read-out: In vitro Cytotoxicities (IC50) CCRF-CEM): 0.011 µM
IC50 (CCRF-CEM; Homo sapiens, CCRF-CEM, 72 h, read-out: In vitro Cytotoxicities (IC50) CCRF-CEM(C)): 0.011 µM
IC50 (CCRF-CEM/Taxol; Homo sapiens, CCRF-CEM, 72 h, read-out: In Vitro Cytotoxicities (IC50) CCRF-CEM/TAXOL): 7 nM
IC50 (CCRF-CEM/Taxol; Homo sapiens, CCRF-CEM, 72 h, read-out: In vitro Cytotoxicities (IC50) C/Taxol): 7 nM
IC50 (CCRF-CEM/Taxol; Homo sapiens, CCRF-CEM, 72 h, read-out: In vitro Cytotoxicities (IC50) CCRF-CEM/Taxol): 7 nM
IC50 (CCRF-CEM/VBL100; Homo sapiens, CCRF-CEM, 72 h, read-out: In Vitro Cytotoxicities (IC50) CCRF-CEM/VBL100): 0.015 µM
IC50 (CCRF-CEM/VBL100; Homo sapiens, CCRF-CEM, 72 h, read-out: In vitro Cytotoxicities (IC50) C/VBL100): 0.015 µM
IC50 (CCRF-CEM/VBL100; Homo sapiens, CCRF-CEM, 72 h, read-out: In vitro Cytotoxicities (IC50) CCRF-CEM/VBL100): 0.015 µM
% Tubulin Binding (tubulin; Example 5 Table 1): 100%
% Tubulin Binding (tubulin; [6]): 100%

CC[C@]1(O)C[C@@H]2CN(CCc3c([nH]c4ccccc34)[C@@](C(=O)OC)(c3cc4c(cc3OC)N(C)[C@H]3[C@@](O)(C(=O)OC)[C@H](OC(C)=O)[C@]5(CC)C=CCN6CC[C@]43[C@@H]65)C2)C1 [vinblastine, reference compound]
IC50 (CCRF-CEM/VM1; [2]): 1.4 nM
IC50 (CCRF-CEM; [3]): 0.0008 µM
IC50 (CCRF-CEM/Taxol; [4]): 18 nM
IC50 (CCRF-CEM/VBL100; [5]): 0.122 µM
